Results from patent US8785459B2, “Quinazoline compounds as kinase inhibitors” (Development Center for Biotechnology, priority 2011, dated 2014).

What was measured:
B-Raf = B-Raf (Homo sapiens (Human), UniProt P15056); experiment: Raf kinase assay (B-Raf), [33P] incorporation into MEK1(K97R); type: biochemical; details: for inhibition at 1 µM: read-out: B-Raf inhibition at 1.0 μM
Procedure, shortened: (§1)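 [33P] transfer to kinase-dead MEK1(K97R) substrate (500 ng) measured after 30 min at 30 °C in Tris pH 7.5 buffer containing 8 μM ATP. Enzyme inputs were 2 ng for C-Raf and 5 ng for B-Raf and B-Raf V600E. Duplicate 3-fold serial dilutions gave the half-maximal inhibitory concentration.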

B-Raf (V600E) = B-Raf (V600E) (Homo sapiens (Human), UniProt P15056, V600E); experiment: Raf kinase assay (B-Raf (V600E)), [33P] incorporation into MEK1(K97R); type: biochemical
Sequence of B-Raf (V600E) (P15056 whole entry V600E): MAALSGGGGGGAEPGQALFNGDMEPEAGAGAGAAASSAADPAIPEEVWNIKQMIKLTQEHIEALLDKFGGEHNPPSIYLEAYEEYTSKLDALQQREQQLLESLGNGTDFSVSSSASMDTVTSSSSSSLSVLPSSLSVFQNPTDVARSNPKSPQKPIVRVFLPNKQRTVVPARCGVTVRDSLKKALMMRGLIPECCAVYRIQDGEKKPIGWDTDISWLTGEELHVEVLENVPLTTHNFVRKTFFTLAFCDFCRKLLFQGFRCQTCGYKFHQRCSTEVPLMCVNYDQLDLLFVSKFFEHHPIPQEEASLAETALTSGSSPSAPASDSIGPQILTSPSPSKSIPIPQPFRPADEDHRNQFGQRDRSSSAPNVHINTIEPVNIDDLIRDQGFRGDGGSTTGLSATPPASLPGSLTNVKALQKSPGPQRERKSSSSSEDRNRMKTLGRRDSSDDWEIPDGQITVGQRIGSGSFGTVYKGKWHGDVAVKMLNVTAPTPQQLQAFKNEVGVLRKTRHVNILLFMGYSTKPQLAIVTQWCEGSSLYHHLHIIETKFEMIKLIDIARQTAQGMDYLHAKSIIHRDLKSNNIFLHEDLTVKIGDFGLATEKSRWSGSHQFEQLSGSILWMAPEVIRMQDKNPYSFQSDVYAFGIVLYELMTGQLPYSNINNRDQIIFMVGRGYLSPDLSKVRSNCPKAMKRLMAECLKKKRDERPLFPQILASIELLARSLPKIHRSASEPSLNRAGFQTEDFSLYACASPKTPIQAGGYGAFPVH
Procedure, shortened: as §1

C-Raf = C-Raf (Homo sapiens (Human), UniProt P04049); experiment: Raf kinase assay (C-Raf), [33P] incorporation into MEK1(K97R); type: biochemical
Sequence of C-Raf (P04049 whole entry): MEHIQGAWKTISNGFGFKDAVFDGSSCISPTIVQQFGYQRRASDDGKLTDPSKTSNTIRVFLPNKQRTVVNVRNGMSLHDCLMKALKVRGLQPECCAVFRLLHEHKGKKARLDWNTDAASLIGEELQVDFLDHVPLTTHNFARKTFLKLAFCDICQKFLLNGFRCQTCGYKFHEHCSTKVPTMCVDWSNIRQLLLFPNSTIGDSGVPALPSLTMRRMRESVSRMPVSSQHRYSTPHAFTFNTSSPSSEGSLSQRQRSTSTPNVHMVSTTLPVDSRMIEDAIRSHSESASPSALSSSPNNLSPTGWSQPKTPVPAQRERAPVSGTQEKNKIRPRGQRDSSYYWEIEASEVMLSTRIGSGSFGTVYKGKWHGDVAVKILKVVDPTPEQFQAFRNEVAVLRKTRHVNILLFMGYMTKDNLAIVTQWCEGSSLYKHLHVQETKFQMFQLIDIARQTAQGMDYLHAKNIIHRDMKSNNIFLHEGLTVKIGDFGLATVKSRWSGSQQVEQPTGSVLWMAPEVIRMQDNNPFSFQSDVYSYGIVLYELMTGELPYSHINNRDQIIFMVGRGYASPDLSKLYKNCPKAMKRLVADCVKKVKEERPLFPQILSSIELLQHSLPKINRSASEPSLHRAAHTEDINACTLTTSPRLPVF
Procedure, shortened: as §1

A549 = experiment: Anti-proliferative activity, CellTiter-96 assay, A549; type: cell-based; details: Homo sapiens, A549 cells, 72 hours incubation
Method: (§2) Antiproliferative Activity
(§3) The anti-proliferative activities of the compounds with formula (I) and formula (II) with respect to four human cancer cell lines (A549, A375, MDA-MB-231, and COLO205) were measured using the CellTiter™-96 assay kit (Promega) following the manufacturer's instructions. In brief, the cells were maintained in DMEM containing 10% FCS and incubated at 37° C. in 5% CO2 atmosphere. Cells were plated at a density of 2000 cells/well of a 96-well plate for 24 h, then treated with different concentrations of the compounds, and incubated for another 72 hours. At the end of the incubation, CellTiter™-96 Aqueous One Solution Reagent (Promega) was added and incubated for another 4.0 hours. Cell viability was determined by measuring absorbance at 490 nm using EMax® microplate reader (Molecular Devices). Data were processed and analyzed using GraphPad Prism version 4.

A375 = experiment: Anti-proliferative activity, CellTiter-96 assay, A375; type: cell-based; details: Homo sapiens, A-375, A375 cells, 72 hours incubation
Method: as §2, §3

MDA-MB-231 = experiment: Anti-proliferative activity, CellTiter-96 assay, MDA-MB-231; type: cell-based; details: Homo sapiens, MDA-MB-231 cells, 72 hours incubation
Method: as §2, §3

COLO205 = experiment: Anti-proliferative activity, CellTiter-96 assay, COLO205; type: cell-based; details: Homo sapiens, COLO 205, COLO205 cells, 72 hours incubation
Method: as §2, §3

Sequence of B-Raf (P15056 whole entry): as the sequence (P15056 whole entry V600E) above, with E600V counted along it

IC50 (B-Raf) | inhibition at 1 µM (B-Raf; 1.0 μM compound) | IC50 (B-Raf (V600E)) | IC50 (C-Raf) | IC50 (A549) | IC50 (A375) | IC50 (MDA-MB-231) | IC50 (COLO205) | B-Raf inhibition at 1.0 μM (B-Raf; 1.0 μM compound) | Compound
99.6 nM | 88.4% | 117 nM | 233 nM | 6400 ± 700 nM | 5400 ± 700 nM | 6200 ± 400 nM | 6300 ± 200 nM |  | COc1ccc(-c2ccc3nccc(Nc4cccc5[nH]ncc45)c3c2)cc1C=O [Compound 116, 5-(4-(1H-indazol-4-ylamino)quinolin-6-yl)-2-methoxybenzaldehyde]
40.4 nM | 94.3% | 47.3 nM | 245 nM | 2200 ± 400 nM | 8700 ± 2700 nM | > 50000 nM | 24700 ± 2400 nM |  | COc1cc(-c2cc3c(Nc4cc(O)ccc4Cl)ncnc3cc2OC)ccc1O [Compound 43, 4-(4-(2-chloro-5-hydroxyphenylamino)-7-methoxyquinazolin-6-yl)-2-methoxyphenol]
21 nM | 95.8% | 23 nM | 136 nM | 1780 ± 200 nM | 1400 ± 400 nM | 5500 ± 500 nM | 5200 ± 200 nM |  | COc1cc(-c2ccc3nccc(Nc4cccc(O)c4)c3c2)ccc1O [Compound 100, 4-(4-(3-hydroxyphenylamino)quinolin-6-yl)-2-methoxyphenol]
164 nM | 85.2% | 211 nM | 354 nM | 3200 nM | 6600 nM | 4000 ± 200 nM | 8900 nM |  | COc1cc(-c2ccc3nccc(Nc4cccc5[nH]ncc45)c3c2)ccc1O [Compound 103, 4-(4-(1H-indazol-4-ylamino)quinolin-6-yl)-2-methoxyphenol]
3.8 nM | 96.4% | 7.1 nM | 36.3 nM | 900 ± 400 nM | 400 ± 100 nM | 1200 ± 100 nM | 5100 ± 1000 nM |  | COc1cc(-c2ccc3ncnc(Nc4cc(O)c(F)cc4F)c3c2)ccc1O [Compound 158, 2,4-difluoro-5-(6-(4-hydroxy-3-methoxyphenyl)quinazolin-4-ylamino)phenol]
18.1 nM | 97.1% | 20.9 nM | 96.1 nM | 6700 ± 100 nM | 2300 ± 300 nM | 21100 ± 3800 nM | 21100 ± 3800 nM |  | COc1cc(-c2ccc3nccc(Nc4cc(O)ccc4F)c3c2)ccc1O [Compound 101, 4-(4-(2-fluoro-5-hydroxyphenylamino)quinolin-6-yl)-2-methoxyphenol]
188 nM | 84.4% | 236 nM | 723 nM | 7700 ± 600 nM | 6400 ± 900 nM | 7800 ± 300 nM |  |  | c1cc(Nc2ncnc3ccc(-c4ccc5[nH]ncc5c4)cc23)c2cn[nH]c2c1 [Compound 153, N-(1H-indazol-4-yl)-6-(1H-indazol-5-yl)quinazolin-4-amine]
267 nM | 76.6% | 278 nM | 735 nM |  |  |  |  |  | COc1ccc(-c2ccc3nccc(Nc4cccc5[nH]ncc45)c3c2)cc1Cl [Compound 115, 6-(3-chloro-4-methoxyphenyl)-N-(1H-indazol-4-yl)quinolin-4-amine]
317 nM | 74.9% | 290 nM | 970 nM |  |  |  |  |  | COc1cc(-c2ccc3ncnc(Nc4cccc(C(N)=O)c4)c3c2)ccc1O [Compound 35, 3-(6-(4-hydroxy-3-methoxyphenyl)quinazolin-4-ylamino)benzamide]
350 nM |  | 268 nM | 1130 nM |  |  |  |  | 84.9% | COc1cc(-c2ccc3ncnc(Nc4c(F)ccc5[nH]ncc45)c3c2)ccc1O [Compound 136, 4-(4-(5-fluoro-1H-indazol-4-ylamino)quinazolin-6-yl)-2-methoxyphenol]
888 nM | 53.5% | 1090 nM | 8390 nM |  |  |  |  |  | COc1cc(-c2ccc3ncnc(Nc4cccc5[nH]c(=O)[nH]c45)c3c2)ccc1O [Compound 127, 4-(6-(4-hydroxy-3-methoxyphenyl)quinazolin-4-ylamino)-1H-benzo[d]imidazol-2(3H)-one]
451 nM | 80.1% | 547 nM | 4210 nM |  |  |  |  |  | Oc1ccc(-c2ccc3ncnc(Nc4cccc5[nH]ncc45)c3c2)cc1 [Compound 131, 4-(4-(1H-indazol-4-ylamino)quinazolin-6-yl)phenol]
470 nM | 71.1% | 736 nM | 1860 nM |  |  |  |  |  | COc1ccc(-c2ccc3ncnc(Nc4cccc5[nH]ncc45)c3c2)cc1C [Compound 78, N-(1H-indazol-4-yl)-6-(4-methoxy-3-methylphenyl)quinazolin-4-amine]
285 nM | 71.2% | 423 nM | 1030 nM |  |  |  |  |  | Fc1ccccc1-c1ccc2nccc(Nc3cccc4[nH]ncc34)c2c1 [Compound 125, 6-(2-fluorophenyl)-N-(1H-indazol-4-yl)quinolin-4-amine]
3140 nM | 48.9% | 1170 nM | > 10000 nM |  |  |  |  |  | COc1cc(-c2ccc3ncnc(Nc4cccc(C(F)(F)F)c4)c3c2)ccc1O [Compound 18, 2-methoxy-4-(4-(3-(trifluoromethyl)phenylamino)quinazolin-6-yl)phenol]
205 nM | 80.4% | 259 nM | 869 nM |  |  |  |  |  | COc1ccc(-c2ccc3ncnc(Nc4cccc5[nH]ncc45)c3c2)cc1OC [Compound 89, 6-(3,4-dimethoxyphenyl)-N-(1H-indazol-4-yl)quinazolin-4-amine]
358 nM | 61.1% | 451 nM | 3910 nM |  |  |  |  |  | COc1cc(-c2ccc3ncnc(Nc4cccc5c4cnn5C)c3c2)ccc1O [Compound 99, 2-methoxy-4-(4-(1-methyl-1H-indazol-4-ylamino)quinazolin-6-yl)phenol]
514 nM | 69.6% | 557 nM | 1220 nM |  |  |  |  |  | Fc1ccc(-c2ccc3ncnc(Nc4cccc5[nH]ncc45)c3c2)cc1Cl [Compound 79, 6-(3-chloro-4-fluorophenyl)-N-(1H-indazol-4-yl)quinazolin-4-amine]
543 nM | 67.1% | 633 nM | 1440 nM |  |  |  |  |  | COc1cc(-c2ccc3ncnc(Nc4ccccc4F)c3c2)ccc1O [Compound 119, 4-(4-(2-fluorophenylamino)quinazolin-6-yl)-2-methoxyphenol]
272 nM | 78.7% | 292 nM | 3190 nM |  |  |  |  |  | CN(C)c1ccc(-c2ccc3ncnc(Nc4cccc(O)c4)c3c2)cc1 [Compound 106, 3-(6-(4-(dimethylamino)phenyl)quinazolin-4-ylamino)phenol]
131 nM | 86.4% | 198 nM | 2330 nM | > 50000 nM | > 50000 nM | > 50000 nM |  |  | COc1ccc(-c2ccc3ncnc(Oc4cccc(O)c4)c3c2)cc1 [Compound 152, 3-(6-(4-methoxyphenyl)quinazolin-4-yloxy)phenol]
248 nM | 81.8% | 273 nM | 650 nM |  |  |  |  |  | CS(=O)(=O)c1ccc(-c2ccc3ncnc(Nc4cccc5[nH]ncc45)c3c2)cc1 [Compound 110, N-(1H-indazol-4-yl)-6-(4-(methylsulfonyl)phenyl)quinazolin-4-amine]
